Results reported in patent publication US9050295B2, “Composition for treatment of tuberculosis” (ETH Zurich, priority 2007, dated 2015).
Entries after “also recorded” stand apart in the source; their conditions may differ.

What was measured:
[1] = biological target: T1, EthR-VP16 binding to OethR (Mycobacterium bovis, UniProt Q7TVI1); assay: cell-based; assay type: cell-based, M. tuberculosis
[2] = biological target: T1, EthR-VP16 binding to OethR; assay type: in vivo; settings: mice, 625 μl/kg injected 1 and 25 h post implantation, serum at 48 h
EthR-OethR interaction = EthR-OethR interaction (Mycobacterium bovis, UniProt Q7TVI1); assay type: binding, M. tuberculosis; settings: ELISA, E. coli cell lysate, OD450
Chain of EthR-OethR interaction (Q7TVI1 whole entry, looked up): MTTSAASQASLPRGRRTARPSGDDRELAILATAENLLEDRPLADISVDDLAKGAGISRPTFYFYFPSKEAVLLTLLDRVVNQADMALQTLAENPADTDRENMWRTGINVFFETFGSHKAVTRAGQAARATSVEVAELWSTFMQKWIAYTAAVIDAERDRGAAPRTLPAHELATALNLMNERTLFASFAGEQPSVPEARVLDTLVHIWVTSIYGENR

E-ETR interaction = assay: Specificity control ELISA, macrolide-dependent repressor E and operator ETR; assay type: binding; settings: ELISA set-up as FIG. 2B
Method: To exclude that 2-phenylethyl butyrate indiscriminatingly modulates protein-DNA interactions the macrolide-dependent repressor-operator configuration is challenged with this compound in an identical ELISA set-up as shown in FIG. 2B. The E-ETR interaction is insensitive to 2-phenylethyl butyrate (PEB) and can exclusively be abolished in the presence of erythromycin (EM, 5 μg/ml).
The repressor protein E binds to its cognate operator sequence ETR and is released thereof in the presence of macrolide antibiotics like erythromycin as described in U.S. Pat. No. 7,273,723.
EthR-his6 is produced as previously described for E-his6 [Weber, C. C. et al., supra] with the exception that the biotinylated operator sequence (OethR) is incubated with a 100 μl streptavidin agarose bead suspension (Novagen, Madison, Wis., USA, cat. no. 69203) for 1 h at 4° C. while rotating.

M. bovis BCG = assay type: cell-based
M. tuberculosis H37Rv = assay type: cell-based
[3] = mouse, in vivo, ip
HEK-293 = HEK-293 with constitutive SEAP expression, 0-3.2 mM, 48 h
[4] = HEK-293 with EthR-based gene circuit, 0-3.2 mM, 48 h

T1 sequence (Q7TVI1 whole entry, looked up): as above

CCCCCCCCCCCCCCCCOC(=O)CCCCCCC [Hexadecyl octanoate, reference compound]
SEAP expression ([1]; HEK-293 containing pWW489 and pWW491, 10 mM): fails to decrease SEAP expression

CCCC(=O)OCCc1ccccc1 [2-Phenylethyl butyrate]
IC50 [1]: 500 µM | SEAP expression [1, 4]: significant decrease in SEAP expression | SEAP serum levels [2]: 0.21±0.03 U/L | modulation of the EthR-OethR interaction (EthR-OethR interaction): exclusively and specifically modulates the EthR-OethR interaction | E-ETR interaction (E-ETR interaction; 2-phenylethyl butyrate): insensitive | growth inhibition of M. bovis BCG in combination with ethionamide (M. bovis BCG; 0.5 and 2 mM with sub-inhibitory ethionamide 0.25 and 0.5 μg/ml): dose-dependently inhibited; also recorded: Synergistic effect | growth inhibitory effect alone, M. bovis BCG (M. bovis BCG; without ethionamide): does not show any growth inhibitory effect | growth inhibition of M. tuberculosis H37Rv in combination with ethionamide (M. tuberculosis H37Rv): dose-dependently inhibited; also recorded: Synergistic effect | growth inhibitory effect alone, M. tuberculosis H37Rv (M. tuberculosis H37Rv): does not show any growth inhibitory effect | inflammation at the injection site [3]: no inflammation at the injection site

CC(=O)CCc1ccccc1 [4-Phenyl-2-butanone]
SEAP expression [1, 4]: significant decrease in SEAP expression | cytotoxicity (HEK-293): does not correlate with cytotoxicity

CC[C@H]1OC(=O)[C@H](C)[C@@H](O[C@H]2C[C@@](C)(OC)[C@@H](O)[C@H](C)O2)[C@H](C)[C@@H](O[C@@H]2O[C@H](C)C[C@H](N(C)C)[C@H]2O)[C@](C)(O)C[C@@H](C)C(=O)[C@H](C)[C@@H](O)[C@]1(C)O [erythromycin, reference compound]
E-ETR interaction (E-ETR interaction; 5 μg/ml): abolished

CC(=O)OCc1ccccc1 [Benzyl acetate]
SEAP expression [1, 4]: significant decrease in SEAP expression

CCC(=O)OCCCc1ccccc1 [3-Phenylpropyl propionate]
SEAP expression [1, 4]: significant decrease in SEAP expression
